Experiments:
MDA-MB-435 cells = assay: Immunofluorescent staining for actin localisation (confocal microscopy); assay type: cell-based, human; conditions: 5 µM, 20 h
Procedure: To evaluate the effect of compound treatment on cell morphology and stress actin fibres, an immunofluorescence imaging of cells was performed as previously described. MDA-MB-435 cells were seeded on cover slips in petri dishes and allowed to grow for 24 h. After cell growth, cells were treated with the vehicule (control cells) or with JMV5038, compound 5 or 8 at 5 µM for 20 h. Then cells were fixed using Antigenfix for 20 min and permeabilized using 0.2% Triton X-100 for 4 min at room temperature. Actin was stained using a primary human anti-actin antibody (made from mouse) and a secondary Alexa Fluor 568-conjugated goat anti-mouse antibody. Both of them were incubated 1 h at room temperature. Nuclei were counter-stained using Hoechst 33342. Representative images were obtained using a Zeiss LSM 780 inverted confocal microscopy. Confocal fluorescence microscopy was performed on fixed cells under a 543 nm wavelength excitation for AlexaFluor568, and 405 nm for nuclei, and visualised at 620 nm (red) and 450 nm (blue) respectively.
In our previous study, we reported that JMV5038 led to changes in the cell morphology, concomitant with a disruption of the actin network. Morphological changes in MDA-MB-435 cells induced by compounds 5 or 8 were investigated and compared to those induced by JMV5038. For this purpose, fixed and actin immunostained MDA-MB-435 cells were imaged by confocal microscopy (Figure 6). Control cells treated with DMSO (20 h, 5 µM concentration) were spread and the tensile forces of actin stress fibres stretched the cell-adhesive phenotype.

[1] = system: NCI-60 cancer cell line panel; assay: NCI-60 SRB assay, whole panel; assay type: cell-based, human; conditions: 10 µM, 48 h
Procedure: (§1) Primary anticancer assay was performed on a panel of 60 human cancer cell lines derived from nine neoplastic diseases, in accordance with the protocol of the Drug Evaluation Branch, National Cancer Institute, Bethesda, Maryland, USA[22]. Cells were incubated with tested compounds at 10 µM for 48 h. The growth percentage was evaluated spectrophotometrically using a protein binding dye, SRB. Results for each tested compound were reported as the percent of growth of treated cells when compared to untreated control cells.
(§2) To better compare the activity profile of these two series of compounds, compounds 5 and 8 were selected and then evaluated towards a panel of sixty cancer cell lines corresponding to nine different cancer types, i.e. leukaemia, melanoma, as well as lung, colon, central nervous system, ovarian, renal, prostate and breast cancers (NCI evaluation). Indeed, it is now well established that the growth inhibitory patterns of anticancer drugs against the NCI-60 cell line panel correlated well with their modes of action. For example, compounds that bind to tubulin have similar growth inhibition patterns regardless of which site on tubulin they bind[30]. […] Compounds were tested using the sulforhodamine B (SRB) assay that provides a direct cell density index. The amount of dye incorporated by the cells increases with the increase of the total protein biomass. Cells were incubated for 48 h with compounds at 10 µM concentration, then cell growth was evaluated spectrophotometrically and presented as the percent of untreated control cells. Values of the most sensitive cell lines were compared to those obtained with JMV5038 (Figure 4, for all data see SI).

EKVX = assay: NCI-60 SRB assay, EKVX (NSCLC); assay type: cell-based, human; conditions: 10 µM, 48 h
Procedure: as §1, §2

HOP-92 = assay: NCI-60 SRB assay, HOP-92 (NSCLC); assay type: cell-based, human; conditions: 10 µM, 48 h;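 for Mean G% - G%: mean growth across the NCI-60 panel minus this line's growth with positive meaning more sensitive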
Procedure: as §1, §2

NCI-H322M = assay: NCI-60 SRB assay, NCI-H322M (NSCLC); assay type: cell-based, human; conditions: 10 µM, 48 h
Procedure: as §1, §2

NCI-H522 = assay: NCI-60 SRB assay, NCI-H522 (NSCLC); assay type: cell-based, human; conditions: 10 µM, 48 h
Procedure: as §1, §2

HCC-2998 = assay: NCI-60 SRB assay, HCC-2998 (Colon Cancer); assay type: cell-based, human; conditions: 10 µM, 48 h;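 for Mean G% - G%: mean growth across the NCI-60 panel minus this line's growth with positive meaning more sensitive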
Procedure: as §1, §2

HCT-15 = assay: NCI-60 SRB assay, HCT-15 (Colon Cancer); assay type: cell-based, human; conditions: 10 µM, 48 h
Procedure: as §1, §2

SW-620 = assay: NCI-60 SRB assay, SW-620 (Colon Cancer); assay type: cell-based, human; conditions: 10 µM, 48 h
Procedure: as §1, §2

SF-268 = assay: NCI-60 SRB assay, SF-268 (CNS Cancer); assay type: cell-based, human; conditions: 10 µM, 48 h
Procedure: as §1, §2

SNB-19 = assay: NCI-60 SRB assay, SNB-19 (CNS Cancer); assay type: cell-based, human; conditions: 10 µM, 48 h
Procedure: as §1, §2

SNB-75 = assay: NCI-60 SRB assay, SNB-75 (CNS Cancer); assay type: cell-based, human; conditions: 10 µM, 48 h
Procedure: as §1, §2

U251 = assay: NCI-60 SRB assay, U251 (CNS Cancer); assay type: cell-based, human; conditions: 10 µM, 48 h
Procedure: as §1, §2

M14 = assay: NCI-60 SRB assay, M14 (Melanoma); assay type: cell-based, human; conditions: 10 µM, 48 h
Procedure: as §1, §2

SK-MEL-2 = assay: NCI-60 SRB assay, SK-MEL-2 (Melanoma); assay type: cell-based, human; conditions: 10 µM, 48 h
Procedure: as §1, §2

UACC-257 = assay: NCI-60 SRB assay, UACC-257 (Melanoma); assay type: cell-based, human; conditions: 10 µM, 48 h
Procedure: as §1, §2

UACC-62 = assay: NCI-60 SRB assay, UACC-62 (Melanoma); assay type: cell-based, human; conditions: 10 µM, 48 h
Procedure: as §1, §2

OVCAR-3 = assay: NCI-60 SRB assay, OVCAR-3 (Ovarian Cancer); assay type: cell-based, human; conditions: 10 µM, 48 h;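 for Mean G% - G%: mean growth across the NCI-60 panel minus this line's growth with positive meaning more sensitive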
Procedure: as §1, §2

OVCAR-5 = assay: NCI-60 SRB assay, OVCAR-5 (Ovarian Cancer); assay type: cell-based, human; conditions: 10 µM, 48 h;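 for Mean G% - G%: mean growth across the NCI-60 panel minus this line's growth with positive meaning more sensitive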
Procedure: as §1, §2

786-0 = assay: NCI-60 SRB assay, 786-0 (Renal Cancer); assay type: cell-based, human; conditions: 10 µM, 48 h
Procedure: as §1, §2

A498 = assay: NCI-60 SRB assay, A498 (Renal Cancer); assay type: cell-based, human; conditions: 10 µM, 48 h
Procedure: as §1, §2

ACHN = assay: NCI-60 SRB assay, ACHN (Renal Cancer); assay type: cell-based, human; conditions: 10 µM, 48 h
Procedure: as §1, §2

SN12C = assay: NCI-60 SRB assay, SN12C (Renal Cancer); assay type: cell-based, human; conditions: 10 µM, 48 h
Procedure: as §1, §2

PC-3 = assay: NCI-60 SRB assay, PC-3 (Prostate Cancer); assay type: cell-based, human; conditions: 10 µM, 48 h
Procedure: as §1, §2

BT-549 = assay: NCI-60 SRB assay, BT-549 (Breast Cancer); assay type: cell-based, human; conditions: 10 µM, 48 h
Procedure: as §1, §2

For C[C@@H]1NC(c2csc3ccccc23)=Nc2nc3ccccn3c2C1=O [Compound 8, (4S)-4-methyl-2-benzothiophen-3-yl-3,4-dihydro-5H-pyrido[1’,2’:1,2]imidazo[4,5-d][1,3]diazepin-5-one], the “morphological changes / actin network” value (MDA-MB-435 cells) was “disorganisation of the actin cytoskeleton”, the “Mean G% (mean growth over the panel)” value [1] was 74.87% and the “Mean G% - G%” value (EKVX) was 0,63%. For the same compound, the G% (EKVX; growth vs untreated control) was 74,24%, the “Mean G% - G%” value (HOP-92) was 34,61% and the G% (HOP-92; growth vs untreated control) was 40,26%. The “Mean G% - G%” value (NCI-H322M) was 10,06%, the G% (NCI-H322M; growth vs untreated control) was 64,81% and the “Mean G% - G%” value (NCI-H522) was -20,45%. For the same compound, the G% (NCI-H522; growth vs untreated control) was 95,32%, the “Mean G% - G%” value (HCC-2998) was -23,19% and the G% (HCC-2998; growth vs untreated control) was 98,06%. For the same compound, the “Mean G% - G%” value (HCT-15) was -1,17%, the G% (HCT-15; growth vs untreated control) was 76,04% and the “Mean G% - G%” value (SW-620) was -0,70%. The G% (SW-620; growth vs untreated control) was 75,57%, the “Mean G% - G%” value (SF-268) was 8,82% and the G% (SF-268; growth vs untreated control) was 66,05%. The “Mean G% - G%” value (SNB-19) was -4,95%, the G% (SNB-19; growth vs untreated control) was 79,82% and the “Mean G% - G%” value (SNB-75) was 60,36%. The G% (SNB-75; growth vs untreated control) was 14,51%, the “Mean G% - G%” value (U251) was -12,47% and the G% (U251; growth vs untreated control) was 87,34%. For the same compound, the “Mean G% - G%” value (M14) was -16,75%, the G% (M14; growth vs untreated control) was 91,62% and the “Mean G% - G%” value (SK-MEL-2) was -20,08%. For the same compound, the G% (SK-MEL-2; growth vs untreated control) was 94,95%, the “Mean G% - G%” value (UACC-257) was -23,68% and the G% (UACC-257; growth vs untreated control) was 98,55%. For the same compound, the “Mean G% - G%” value (UACC-62) was -12,07%, the G% (UACC-62; growth vs untreated control) was 86,94% and the “Mean G% - G%” value (OVCAR-3) was -5,26%. The G% (OVCAR-3; growth vs untreated control) was 80,13%, the “Mean G% - G%” value (OVCAR-5) was -32,82% and the G% (OVCAR-5; growth vs untreated control) was 107,69%. The “Mean G% - G%” value (786-0) was -14,72%, the G% (786-0; growth vs untreated control) was 89,59% and the “Mean G% - G%” value (A498) was 13,54%. For the same compound, the G% (A498; growth vs untreated control) was 61,33%, the “Mean G% - G%” value (ACHN) was -4,72% and the G% (ACHN; growth vs untreated control) was 79,59%. For the same compound, the “Mean G% - G%” value (SN12C) was -9,24%, the G% (SN12C; growth vs untreated control) was 84,11% and the “Mean G% - G%” value (PC-3) was -2,69%. The G% (PC-3; growth vs untreated control) was 77,56%, the “Mean G% - G%” value (BT-549) was -11,85% and the G% (BT-549; growth vs untreated control) was 86,72%. For the same compound, the melting point was 135 to 137 °C.

— publication PMC7170309, “Imidazopyridine-fused [1,3]diazepinones: modulations of positions 2 to 4 and their impacts on the anti-melanoma activity” (Journal of Enzyme Inhibition and Medicinal Chemistry, 2020)
